Experimental findings from PubChem BioAssay (NCI) are described below.

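Assay format: 96-well plates, 48-hour exposure. The concentration for 50% growth inhibition is given as GI50. Definition used: TGI = concentration required for complete inhibition of growth.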

Test systems include SN12C renal; SNB-75 CNS; HCC-2998 colon; SF-268 CNS; NCI-H460 lung; UACC-62 melanoma; HT29 colon; DU-145 prostate; SK-OV-3 ovarian; UO-31 renal.
What all share (test): growth of human tumour cells (NCI), 48 h

Take `N#Cc1c(N)nc(N2CCOCC2)c(C#N)c1-c1c(Cl)cccc1Cl`: the GI50 in the assay with SN12C renal is 6.17 µM; in the assay with SNB-75 CNS, 1.75 µM; in the assay on HCC-2998 colon, 0.0181 µM; in the assay with SF-268 CNS, 11.3 µM; with NCI-H460 lung it was 6.39 µM; with UACC-62 melanoma, 3.87 µM. The GI50 in the assay on HT29 colon is 3.33 µM; with DU-145 prostate, 16.9 µM; in the assay on SK-OV-3 ovarian it was 4.09 µM; in the assay on UO-31 renal, 7.79 µM. Moreover, the TGI in the assay on SN12C renal is 33.2 µM; in the assay on SNB-75 CNS it was 9.66 µM; in the assay with HCC-2998 colon, 2.48 µM; with SF-268 CNS it was > 100 µM; with NCI-H460 lung, 44.6 µM; with UACC-62 melanoma, 19.7 µM. In addition, the TGI in the assay with HT29 colon is 17.4 µM; with DU-145 prostate, > 100 µM; in the assay with SK-OV-3 ovarian it was 21 µM; in the assay with UO-31 renal, 44.1 µM.

Consider `Cc1c(-c2ccccn2)ccc2ccccc12`, for which the TGI in the assay on SN12C renal, in the assay with SNB-75 CNS, in the assay with HCC-2998 colon, in the assay with SF-268 CNS, in the assay with NCI-H460 lung and in the assay on UACC-62 melanoma was > 100 µM throughout. The TGI with HT29 colon is > 100 µM; with DU-145 prostate it was > 100 µM; in the assay on SK-OV-3 ovarian it was > 100 µM; in the assay on UO-31 renal, 82.9 µM.

Consider `CCOC(=O)/C=C1/SC(=Nc2ccc(C#N)cc2)N(Cc2ccco2)C1=O`, for which the GI50 with SN12C renal is 2.45 µM; with SNB-75 CNS, 10.3 µM; in the assay with HCC-2998 colon, 3.67 µM; in the assay on SF-268 CNS it was 3.38 µM; in the assay on NCI-H460 lung it was 5.66 µM; in the assay with UACC-62 melanoma, 2.23 µM. Besides, the GI50 is 2.11 µM in the assay with HT29 colon, 3.17 µM with DU-145 prostate, 14.1 µM in the assay with SK-OV-3 ovarian and 1.45 µM with UO-31 renal. The TGI in the assay on SN12C renal is 6.76 µM; in the assay with SNB-75 CNS it was 55.4 µM; in the assay with HCC-2998 colon it was 15.8 µM; in the assay with SF-268 CNS, 13.7 µM; with NCI-H460 lung it was 19.7 µM; in the assay with UACC-62 melanoma it was 5.25 µM. Moreover, the TGI in the assay with HT29 colon worked out at 4.61 µM; with DU-145 prostate, 10.5 µM; in the assay on SK-OV-3 ovarian, 29.9 µM; in the assay on UO-31 renal, 2.86 µM.

Take `CC/C=C\C[C@H]1C/C=C2/C(=O)C(Cl)=C[C@@H]2C/C=C\CCCC(=O)O1`: the GI50 was 0.575 µM in the assay with SN12C renal; 1.19 µM in the assay with SNB-75 CNS; 0.437 µM in the assay with HCC-2998 colon; 0.496 µM in the assay with SF-268 CNS; 0.545 µM in the assay on NCI-H460 lung; 0.28 µM in the assay on UACC-62 melanoma. Moreover, the GI50 is 0.325 µM with HT29 colon, 0.517 µM in the assay with DU-145 prostate, 1.04 µM in the assay on SK-OV-3 ovarian and 0.352 µM in the assay on UO-31 renal. In addition, the TGI in the assay on SN12C renal amounted to 2.57 µM; in the assay with SNB-75 CNS, 5.39 µM; in the assay on HCC-2998 colon it was 0.826 µM; in the assay with SF-268 CNS, 2.39 µM; with NCI-H460 lung it was 1.89 µM; with UACC-62 melanoma, 1.2 µM. The TGI in the assay on HT29 colon was 0.79 µM; with DU-145 prostate, 1.85 µM; with SK-OV-3 ovarian, 3.49 µM; in the assay on UO-31 renal, 0.703 µM.

As for `C(=N\Nc1ccc2ccccc2n1)/c1ccccn1`, the GI50 in the assay with SN12C renal was 0.483 µM; with SNB-75 CNS, 1.1 µM; in the assay on HCC-2998 colon, 0.307 µM; in the assay with SF-268 CNS it was 0.41 µM; in the assay on NCI-H460 lung it was 0.366 µM; in the assay with UACC-62 melanoma it was 0.877 µM. Moreover, the GI50 with HT29 colon is 0.536 µM; in the assay on DU-145 prostate, 0.374 µM; with SK-OV-3 ovarian it was 0.537 µM; in the assay with UO-31 renal, 0.304 µM. In addition, the TGI in the assay with SN12C renal is > 100 µM; in the assay on SNB-75 CNS it was 51.2 µM; in the assay on HCC-2998 colon, 1.14 µM; in the assay with SF-268 CNS, > 33.5 µM; in the assay with UACC-62 melanoma, 5.54 µM; in the assay on HT29 colon, > 40.6 µM. In addition, the results for the TGI with DU-145 prostate, in the assay with SK-OV-3 ovarian and in the assay on UO-31 renal were > 37.7 µM, > 40.5 µM and 2.66 µM, respectively.

With `CCc1c(C)c2cc(-n3c(-c4ccc(OC)cc4)csc3=N)c(O)c(C)c2oc1=O`, the GI50 is 1.82 µM with SN12C renal; 1.67 µM in the assay on SNB-75 CNS; 3.09 µM in the assay on HCC-2998 colon; 2.1 µM in the assay with SF-268 CNS; 2.25 µM with NCI-H460 lung; 1 µM in the assay on UACC-62 melanoma. Also, the GI50 was 1.74 µM in the assay on HT29 colon, 3 µM in the assay with DU-145 prostate, 2.85 µM in the assay on SK-OV-3 ovarian and 0.687 µM in the assay with UO-31 renal. Further, the TGI with SN12C renal was 4.89 µM; in the assay on SNB-75 CNS, > 100 µM; in the assay with HCC-2998 colon it was 10.2 µM; in the assay on SF-268 CNS, 10.3 µM; with NCI-H460 lung, 10.6 µM; in the assay with UACC-62 melanoma, 2.94 µM. The TGI with HT29 colon stood at 6.12 µM; in the assay with DU-145 prostate, 12.3 µM; in the assay with SK-OV-3 ovarian it was 34.4 µM; in the assay on UO-31 renal, 3.65 µM.

As to `CC1(C)C(=O)/C=C\C(=O)C(C)(C)C(=O)/C=C\C(=O)C(C)(C)C2=CC=C(O2)C(C)(C)C(=O)/C=C\C1=O`, the TGI in the assay with SN12C renal was 14.1 µM; in the assay on SNB-75 CNS it was 20.2 µM; with HCC-2998 colon it was 24.1 µM; in the assay with SF-268 CNS, 43.8 µM; with NCI-H460 lung, 46.8 µM; in the assay on UACC-62 melanoma it was 15.7 µM. Also, the TGI with HT29 colon is 8.45 µM; in the assay with DU-145 prostate, 32.1 µM; with SK-OV-3 ovarian it was 22.9 µM; in the assay on UO-31 renal it was 28.3 µM.

For the compound `CN1CCN(c2ccc(NC3=CC(=O)c4ncncc4C3=O)cc2)CC1`, the GI50 with SN12C renal is 0.326 µM; in the assay on SNB-75 CNS, 1.7 µM; with HCC-2998 colon, 1.27 µM; in the assay with SF-268 CNS, 1.77 µM; in the assay with NCI-H460 lung it was 0.354 µM; in the assay with UACC-62 melanoma it was 0.303 µM. For the same compound, the GI50 with HT29 colon is 1.72 µM; in the assay with DU-145 prostate, 0.639 µM; with SK-OV-3 ovarian, 1.63 µM; in the assay on UO-31 renal it was 0.27 µM. The TGI is 0.969 µM in the assay with SN12C renal; 3.11 µM in the assay with SNB-75 CNS; 2.82 µM with HCC-2998 colon; 5.73 µM in the assay with SF-268 CNS; 1.22 µM in the assay on NCI-H460 lung; 0.804 µM with UACC-62 melanoma. The TGI was determined as 5.98 µM in the assay with HT29 colon, 1.88 µM with DU-145 prostate, 3.16 µM in the assay with SK-OV-3 ovarian and 0.761 µM in the assay on UO-31 renal.
